assay: RP, Agilent ZORBAX Eclipse XDB-C8, 150 × 4.6 mm, 3.5 µm, 25 °C, 0.6 mL/min, estimated dead time 2.6 min; A: water + 0.1% formic acid; B: acetonitrile + 0.1% formic acid; gradient (min/%B) 0/10 5/10 30/100; details: stereoisomer not certain

Row | LC retention time [min] | Structure (SMILES)
1 | 11.3 | CN(C)CC(c1ccc(O)cc1)C1(O)CCCCC1 (stereo unspecified)
2 | 26.9 | CCC(C)(C)C(=O)OC1CC(C)C=C2C=CC(C)C(CCC3CC(O)CC(=O)O3)C21 (stereo unspecified)
3 | 12.9 | NC(=O)N1c2ccccc2C(O)C(O)c2ccccc21 (stereo unspecified)
4 | 16.9 | CC1(C)SC2C(NC(=O)Cc3ccccc3)C(=O)N2C1C(=O)O (stereo unspecified)
5 | 8.8 | c1ccc2[nH]c(-c3cscn3)nc2c1
6 | 24.6 | Cc1cccc(Nc2ccccc2C(=O)O)c1C
7 | 12.7 | COc1ccccc1OCC(O)CO (stereo unspecified)
8 | 20.5 | COC(=O)c1c(C)nc(C)c(C(=O)OC)c1-c1ccccc1[N+](=O)[O-]
9 | 16 | CCC1OC(=O)C(C)C(OC2CC(C)(OC)C(O)C(C)O2)C(C)C(OC2OC(C)CC(N(C)C)C2O)C(C)(OC)CC(C)C(=O)C(C)C(O)C1(C)O (stereo unspecified)
10 | 8.7 | CCCC1CC(C(=O)NC(C(C)O)C2OC(SC)C(O)C(O)C2O)N(C)C1 (stereo unspecified)
11 | 14.6 | CCC1OC(=O)C(C)C(OC2CC(C)(OC)C(O)C(C)O2)C(C)C(OC2OC(C)CC(N(C)C)C2O)C(C)(O)CC(C)C(=O)C(C)C(O)C1(C)O (stereo unspecified)
12 | 19 | CC(C(=O)O)c1cccc(C(=O)c2ccccc2)c1 (stereo unspecified)
13 | 13.9 | NC(=O)N1c2ccccc2CC(O)c2ccccc21 (stereo unspecified)
14 | 4 | CC(C)(C)NCC(O)c1ccc(O)c(CO)c1 (stereo unspecified)
15 | 16.5 | COc1cc(NS(=O)(=O)c2ccc(N)cc2)nc(OC)n1
16 | 3.2 | CN1C(=O)CCC1c1cccnc1 (stereo unspecified)
17 | 12.7 | Cc1nnc(NS(=O)(=O)c2ccc(N)cc2)s1
18 | 17.2 | NC(=O)N1c2ccccc2C=Cc2ccccc21
19 | 4.6 | CNC(=C[N+](=O)[O-])NCCSCc1ccc(CN(C)C)o1
20 | 12.4 | Cc1cc(C)nc(NS(=O)(=O)c2ccc(N)cc2)n1
21 | 17.1 | O=C1NC(=O)C(c2ccccc2)(c2ccccc2)N1
22 | 10.6 | Nc1ccc(S(=O)(=O)Nc2nccs2)cc1
23 | 12.9 | CON=C(C(=O)NC1C(=O)N2C(C(=O)O)=C(COC(C)=O)CSC12)c1csc(N)n1 (stereo unspecified)
24 | 10.4 | COc1cc(Cc2cnc(N)nc2N)cc(OC)c1OC
25 | 12.7 | CCC1(c2ccccc2)C(=O)NCNC1=O
26 | 19.7 | O=C(c1ccccc1)c1ccc2n1CCC2C(=O)O (stereo unspecified)
27 | 20.9 | COc1ccc2cc(C(C)C(=O)O)ccc2c1 (stereo unspecified)

Row | LC retention time [min] | Structure (SMILES)
28 | 17.1 | NC(=O)N1c2ccccc2CCc2ccccc21
29 | 10.4 | CC1(C)SC2C(NC(=O)C(N)c3ccccc3)C(=O)N2C1C(=O)O (stereo unspecified)
30 | 12.1 | COCCc1ccc(OCC(O)CNC(C)C)cc1 (stereo unspecified)
31 | 4.3 | CN=C(NC#N)NCCSCc1nc[nH]c1C
32 | 14.4 | CC(C)NCC(O)COc1cccc2ccccc12 (stereo unspecified)
33 | 18.4 | CC1=CC(O)CC(=O)Cc2nc(co2)C(=O)N2CCC=C2C(=O)OC(C(C)C)C(C)C=CC(=O)NCC=C1.CCC1NC(=O)C(NC(=O)c2ncccc2O)C(C)OC(=O)C(c2ccccc2)NC(=O)C2CC(=O)CCN2C(=O)C(Cc2ccccc2)N(C)C(=O)C2CCCN2C1=O (stereo unspecified)
34 | 17.9 | CC1(C)SC2C(NC(=O)COc3ccccc3)C(=O)N2C1C(=O)O (stereo unspecified)
35 | 15.2 | COc1ccc(C2Sc3ccccc3N(CCN(C)C)C(=O)C2OC(C)=O)cc1 (stereo unspecified)
36 | 15.3 | Cc1cc(NS(=O)(=O)c2ccc(N)cc2)no1
37 | 9.4 | CC(C)NCC(O)COc1ccc(CC(=O)O)cc1 (stereo unspecified)
38 | 6.3 | Cn1c(=O)[nH]c2ncn(C)c2c1=O
39 | 21.4 | CC(=O)CC(c1ccccc1)c1c(O)c2ccccc2oc1=O (stereo unspecified)
40 | 9.8 | Cn1c(=O)c2c(ncn2C)n(C)c1=O
41 | 6.5 | CC(=O)Nc1ccc(O)cc1
42 | 9.9 | Nc1ccc(S(=O)(=O)Nc2ncccn2)cc1
43 | 15.8 | NC(=O)N1c2ccccc2CC(=O)c2ccccc21
44 | 12.2 | CCC1OC(=O)C(C)C(OC2CC(C)(OC)C(O)C(C)O2)C(C)C(OC2OC(C)CC(N(C)C)C2O)C(C)(O)CC(C)CN(C)C(C)C(O)C1(C)O (stereo unspecified)
45 | 15.2 | CC1OC(OC2C(O)CC(OC3C(O)CC(OC4CCC5(C)C(CCC6C5CC(O)C5(C)C(C7=CC(=O)OC7)CCC65O)C4)OC3C)OC2C)CC(O)C1O (stereo unspecified)
46 | 11.5 | Cc1ccnc(NS(=O)(=O)c2ccc(N)cc2)n1
47 | 16.2 | CCC1OC(=O)C(C)C(OC2CC(C)(OC)C(O)C(C)O2)C(C)C(OC2OC(C)CC(N(C)C)C2O)C(C)(O)CC(C)C(=NOCOCCOC)C(C)C(O)C1(C)O (stereo unspecified)
48 | 25 | Cc1ccc(C)c(OCCCC(C)(C)C(=O)O)c1
49 | 15 | CCC1OC(=O)CC(O)C(C)C(OC2OC(C)C(OC3CC(C)(O)C(O)C(C)O3)C(N(C)C)C2O)C(CC=O)CC(C)C(=O)C=CC(C)=CC1COC1OC(C)C(O)C(OC)C1OC (stereo unspecified)
50 | 4.2 | CC(C)NCC(O)COc1ccc(CC(N)=O)cc1 (stereo unspecified)
51 | 4.6 | Nc1ccc(S(N)(=O)=O)cc1
52 | 19.2 | Cc1onc(-c2ccccc2)c1C(=O)NC1C(=O)N2C1SC(C)(C)C2C(=O)O (stereo unspecified)
53 | 15.1 | CN(C)CCOC(c1ccccc1)c1ccccc1
54 | 23.6 | CC(C)Cc1ccc(C(C)C(=O)O)cc1 (stereo unspecified)

Row | Structure (SMILES) | LC retention time [min]
55 | NCC1(CC(=O)O)CCCCC1 | 6.5
56 | COc1ccc(C(CN(C)C)C2(O)CCCCC2)cc1 (stereo unspecified) | 13.5
57 | CC12CCC(O)CC1CCC1C2CC(O)C2(C)C(C3=CC(=O)OC3)CCC12O (stereo unspecified) | 13.4
58 | CN1CCC23CCCCC2C1Cc1ccc(O)cc13 (stereo unspecified) | 12.1
59 | CCn1cc(C(=O)O)c(=O)c2cc3c(cc21)OCO3 | 15.4
60 | COc1cccc(C2(O)CCCCC2CN(C)C)c1 (stereo unspecified) | 11.1
61 | CCC(=O)C(CC(C)N(C)C)(c1ccccc1)c1ccccc1 (stereo unspecified) | 16.6
62 | COc1ccc2c(c1)C13CCCCC1C(C2)N(C)CC3 (stereo unspecified) | 14.6
63 | COc1ccc2c3c1OC1C(=O)CCC4(O)C(C2)N(C)CCC314 (stereo unspecified) | 9.4
64 | COc1ccc2c3c1OC1C(=O)CCC4C(C2)N(C)CCC314 (stereo unspecified) | 10.1
65 | COc1ccc2c3c1OC1C(O)C=CC4C(C2)N(C)CCC341 (stereo unspecified) | 7
66 | CCCC(C)(COC(N)=O)COC(N)=O | 14.7

— the RepoRT retention time repository (doi:10.1016/j.chroma.2012.03.059)
